Laboratory results as given in ChEMBL document CHEMBL3885861, “Open TG-GATES”.

Species on record: Rattus norvegicus
Assay: Open TG-GATES - Regimen: Single
Type: toxicity, organism-based, Sprague-Dawley
Set-up: regimen Single, gender Male, age 6 weeks
Conditions: in vivo, po, route gavage; for APTT / Bas / Eos / Fbg / Hb / Ht / Lym / MCH / MCHC / MCV / Mono / Neu / PT / Plat / RBC / Ret / WBC: tissue Blood; for KIDNEY_L / KIDNEY_R / KIDNEY_TOTAL: tissue Kidney; for LIVER: tissue Liver; for A/G / ALP / ALT / AST / BUN / CRE / Ca / Cl / DBIL / GLC / IP / K / LDH / Na / PL / RALB / TBIL / TC / TG / TP / gamma-GTP: tissue Plasma
[1] = 150 mg/kg, 3 h, dose level Middle
[2] = 150 mg/kg, 6 h, dose level Middle
[3] = 150 mg/kg, 9 h, dose level Middle
[4] = 150 mg/kg, 24 h, dose level Middle
[5] = 500 mg/kg, 3 h, dose level High
[6] = 500 mg/kg, 6 h, dose level High
[7] = 500 mg/kg, 9 h, dose level High
[8] = 500 mg/kg, 24 h, dose level High

## CC(=O)Oc1cc(C(C)C)c(OCCN(C)C)cc1C [MOXISYLYTE]
[1]
  TERMINAL_BW: 205.7 g
  APTT: 22.9 s
  Bas: 0%
  Eos: 1%
  Fbg: 293 mg/dL
  Hb: 13.5 g/dL
  Ht: 39.8%
  Lym: 75%
  MCH: 21.3 pg
  MCHC: 33.8%
  MCV: 62.8 fL
  Mono: 1.6%
  Neu: 21.8%
  PT: 15.9 s
  Plat: 112.4 x10_4/uL
  RBC: 634.4 x10_4/ul
  Ret: 7.5%
  WBC: 68.3 x10_2/uL
  KIDNEY_L: 0.9 g
  KIDNEY_R: 0.9 g
  KIDNEY_TOTAL: 1.8 g
  LIVER: 9.3 g
  A/G: 1.3
  ALP: 1569.2 IU/L
  ALT: 44 IU/L
  AST: 81.4 IU/L
  BUN: 13.2 mg/dL
  CRE: 0.2 mg/dL
  Ca: 10.5 mg/dL
  Cl: 107.8 meq/L
  DBIL: 0.004 mg/dL
  GLC: 194 mg/dL
  IP: 9.3 mg/dL
  K: 4.2 meq/L
  LDH: 315.8 IU/L
  Na: 142 meq/L
  PL: 128.4 mg/dL
  RALB: 3.1 g/dL
  TBIL: 0.03 mg/dL
  TC: 75.8 mg/dL
  TG: 28.8 mg/dL
  TP: 5.4 g/dL
  gamma-GTP: 1.2 IU/L
[2]
  TERMINAL_BW: 206.6 g
  APTT: 21.8 s
  Bas: 0%
  Eos: 1%
  Fbg: 313.2 mg/dL
  Hb: 13.3 g/dL
  Ht: 38.6%
  Lym: 72%
  MCH: 20.8 pg
  MCHC: 34.4%
  MCV: 60.3 fL
  Mono: 2.2%
  Neu: 23.8%
  PT: 15.8 s
  Plat: 129.5 x10_4/uL
  RBC: 641.2 x10_4/ul
  Ret: 7.2%
  WBC: 67.7 x10_2/uL
  KIDNEY_L: 0.9 g
  KIDNEY_R: 0.9 g
  KIDNEY_TOTAL: 1.9 g
  LIVER: 8.9 g
  A/G: 1.2
  ALP: 1449.6 IU/L
  ALT: 39.4 IU/L
  AST: 74.8 IU/L
  BUN: 10.6 mg/dL
  CRE: 0.2 mg/dL
  Ca: 10.6 mg/dL
  Cl: 108.4 meq/L
  DBIL: 0.01 mg/dL
  GLC: 181.8 mg/dL
  IP: 9 mg/dL
  K: 4.8 meq/L
  LDH: 253.6 IU/L
  Na: 140.8 meq/L
  PL: 137.4 mg/dL
  RALB: 3 g/dL
  TBIL: 0.008 mg/dL
  TC: 72.2 mg/dL
  TG: 61.6 mg/dL
  TP: 5.4 g/dL
  gamma-GTP: 1 IU/L
[3]
  TERMINAL_BW: 208.5 g
  APTT: 21.5 s
  Bas: 0%
  Eos: 1%
  Fbg: 308.2 mg/dL
  Hb: 13.3 g/dL
  Ht: 38.7%
  Lym: 72%
  MCH: 21.2 pg
  MCHC: 34.5%
  MCV: 61.4 fL
  Mono: 2.4%
  Neu: 23.8%
  PT: 15.9 s
  Plat: 118.6 x10_4/uL
  RBC: 631.2 x10_4/ul
  Ret: 8.4%
  WBC: 93 x10_2/uL
  KIDNEY_L: 1 g
  KIDNEY_R: 1 g
  KIDNEY_TOTAL: 1.9 g
  LIVER: 8.5 g
  A/G: 1.3
  ALP: 1409.6 IU/L
  ALT: 38.8 IU/L
  AST: 70.2 IU/L
  BUN: 11.4 mg/dL
  CRE: 0.2 mg/dL
  Ca: 10.5 mg/dL
  Cl: 107.8 meq/L
  DBIL: 0.008 mg/dL
  GLC: 181.8 mg/dL
  IP: 9.7 mg/dL
  K: 4.3 meq/L
  LDH: 240.2 IU/L
  Na: 141.8 meq/L
  PL: 135 mg/dL
  RALB: 3.1 g/dL
  TBIL: 0.026 mg/dL
  TC: 75.6 mg/dL
  TG: 47.4 mg/dL
  TP: 5.6 g/dL
  gamma-GTP: 1 IU/L
[4]
  TERMINAL_BW: 221.8 g
  APTT: 21.2 s
  Bas: 0%
  Eos: 0.8%
  Fbg: 313.8 mg/dL
  Hb: 13.5 g/dL
  Ht: 38.6%
  Lym: 79.6%
  MCH: 21.3 pg
  MCHC: 34.9%
  MCV: 61.2 fL
  Mono: 2%
  Neu: 17.4%
  PT: 15.8 s
  Plat: 121.2 x10_4/uL
  RBC: 632.2 x10_4/ul
  Ret: 7.7%
  WBC: 96.5 x10_2/uL
  KIDNEY_L: 1 g
  KIDNEY_R: 1 g
  KIDNEY_TOTAL: 2 g
  LIVER: 10.8 g
  A/G: 1.2
  ALP: 1617.2 IU/L
  ALT: 43.6 IU/L
  AST: 70.8 IU/L
  BUN: 17.2 mg/dL
  CRE: 0.2 mg/dL
  Ca: 11.3 mg/dL
  Cl: 106 meq/L
  DBIL: 0 mg/dL
  GLC: 179.4 mg/dL
  IP: 7.4 mg/dL
  K: 4.3 meq/L
  LDH: 247.2 IU/L
  Na: 141.8 meq/L
  PL: 163.2 mg/dL
  RALB: 3.2 g/dL
  TBIL: 0.006 mg/dL
  TC: 81.6 mg/dL
  TG: 178.8 mg/dL
  TP: 5.9 g/dL
  gamma-GTP: 1.4 IU/L
[5]
  TERMINAL_BW: 212.3 g
  APTT: 21.6 s
  Bas: 0%
  Eos: 1.2%
  Fbg: 311.2 mg/dL
  Hb: 12.6 g/dL
  Ht: 37.4%
  Lym: 72.6%
  MCH: 21.4 pg
  MCHC: 33.7%
  MCV: 63.2 fL
  Mono: 2%
  Neu: 23.6%
  PT: 16 s
  Plat: 115.9 x10_4/uL
  RBC: 590.6 x10_4/ul
  Ret: 8.3%
  WBC: 64.3 x10_2/uL
  KIDNEY_L: 0.9 g
  KIDNEY_R: 1 g
  KIDNEY_TOTAL: 1.9 g
  LIVER: 9.7 g
  A/G: 1.4
  ALP: 1326.8 IU/L
  ALT: 43 IU/L
  AST: 81.6 IU/L
  BUN: 14.6 mg/dL
  CRE: 0.1 mg/dL
  Ca: 10.6 mg/dL
  Cl: 107.8 meq/L
  DBIL: 0.014 mg/dL
  GLC: 196.8 mg/dL
  IP: 10.3 mg/dL
  K: 4.5 meq/L
  LDH: 251 IU/L
  Na: 142.2 meq/L
  PL: 132.2 mg/dL
  RALB: 3.1 g/dL
  TBIL: 0.028 mg/dL
  TC: 79 mg/dL
  TG: 33.8 mg/dL
  TP: 5.5 g/dL
  gamma-GTP: 1 IU/L
[6]
  TERMINAL_BW: 211.5 g
  APTT: 21.2 s
  Bas: 0%
  Eos: 1%
  Fbg: 318.6 mg/dL
  Hb: 13 g/dL
  Ht: 38%
  Lym: 77%
  MCH: 21.2 pg
  MCHC: 34.1%
  MCV: 62.1 fL
  Mono: 2.2%
  Neu: 19.2%
  PT: 15.6 s
  Plat: 119.7 x10_4/uL
  RBC: 611.8 x10_4/ul
  Ret: 8.1%
  WBC: 63.2 x10_2/uL
  KIDNEY_L: 1 g
  KIDNEY_R: 1 g
  KIDNEY_TOTAL: 2 g
  LIVER: 9.8 g
  A/G: 1.3
  ALP: 1572.4 IU/L
  ALT: 40.6 IU/L
  AST: 75.2 IU/L
  BUN: 11.8 mg/dL
  CRE: 0.1 mg/dL
  Ca: 10.5 mg/dL
  Cl: 107.8 meq/L
  DBIL: 0.014 mg/dL
  GLC: 194.2 mg/dL
  IP: 10 mg/dL
  K: 4.5 meq/L
  LDH: 239 IU/L
  Na: 141 meq/L
  PL: 141.6 mg/dL
  RALB: 3.1 g/dL
  TBIL: 0.026 mg/dL
  TC: 75.4 mg/dL
  TG: 42.4 mg/dL
  TP: 5.5 g/dL
  gamma-GTP: 1.2 IU/L
[7]
  TERMINAL_BW: 205.5 g
  APTT: 20.8 s
  Bas: 0%
  Eos: 0.8%
  Fbg: 351 mg/dL
  Hb: 13.6 g/dL
  Ht: 40.1%
  Lym: 69.2%
  MCH: 21.4 pg
  MCHC: 33.9%
  MCV: 63.3 fL
  Mono: 2.6%
  Neu: 27.4%
  PT: 15.8 s
  Plat: 124.5 x10_4/uL
  RBC: 633.8 x10_4/ul
  Ret: 7.8%
  WBC: 68.7 x10_2/uL
  KIDNEY_L: 0.9 g
  KIDNEY_R: 1 g
  KIDNEY_TOTAL: 1.9 g
  LIVER: 9.1 g
  A/G: 1.2
  ALP: 1633.4 IU/L
  ALT: 41 IU/L
  AST: 76.6 IU/L
  BUN: 11.4 mg/dL
  CRE: 0.1 mg/dL
  Ca: 10.4 mg/dL
  Cl: 108.6 meq/L
  DBIL: 0.018 mg/dL
  GLC: 196.6 mg/dL
  IP: 9.9 mg/dL
  K: 4.3 meq/L
  LDH: 223.6 IU/L
  Na: 142.2 meq/L
  PL: 142 mg/dL
  RALB: 3.1 g/dL
  TBIL: 0.034 mg/dL
  TC: 74.8 mg/dL
  TG: 49.4 mg/dL
  TP: 5.7 g/dL
  gamma-GTP: 1.2 IU/L
[8]
  TERMINAL_BW: 215.6 g
  APTT: 19.4 s
  Bas: 0%
  Eos: 0.8%
  Fbg: 300.6 mg/dL
  Hb: 13.4 g/dL
  Ht: 38.6%
  Lym: 76.4%
  MCH: 22.1 pg
  MCHC: 34.7%
  MCV: 63.6 fL
  Mono: 2%
  Neu: 20%
  PT: 15.8 s
  Plat: 140.3 x10_4/uL
  RBC: 607.2 x10_4/ul
  Ret: 8.2%
  WBC: 111.6 x10_2/uL
  KIDNEY_L: 1 g
  KIDNEY_R: 1 g
  KIDNEY_TOTAL: 1.9 g
  LIVER: 10.4 g
  A/G: 1.2
  ALP: 1455.6 IU/L
  ALT: 44.8 IU/L
  AST: 73.4 IU/L
  BUN: 18 mg/dL
  CRE: 0.1 mg/dL
  Ca: 11.1 mg/dL
  Cl: 106.4 meq/L
  DBIL: 0 mg/dL
  GLC: 176.8 mg/dL
  IP: 8.6 mg/dL
  K: 4.1 meq/L
  LDH: 241 IU/L
  Na: 142 meq/L
  PL: 149.8 mg/dL
  RALB: 3 g/dL
  TBIL: 0.006 mg/dL
  TC: 77 mg/dL
  TG: 100.6 mg/dL
  TP: 5.6 g/dL
  gamma-GTP: 1 IU/L
